Assay results as given in US12648984B2, “Long term treatment of psoriasis” (priority 2023, dated 2026).

Tested on: extensive plaque psoriasis on the trunk
Assay: one patient case: once-daily topical application on the whole trunk
Format: in vivo, human
Details: same patient; for effect of earlier treatments on redness and psoriasis: regular treatment before the composition (UVA, then hydrocortisone, then Acitretine); for status upon cessation of earlier treatments: upon cessation of earlier treatment
Text: The composition has been evaluated in one patient case. A […], presenting extensive plaque psoriasis on the trunk for several years (illustration 1), was regularly treated with UVA, then hydrocortisone, then Acitretine.
They were provided with the composition according to the invention to apply once daily on the whole trunk. No concomitant treatment for psoriasis or else was used.
After 6 months, treatment with the composition was discontinued. Several months after discontinuation, the patient was questioned regarding the status of the disease.

COc1cc(C)c(/C=C/C(C)=C/C=C/C(C)=C/C(=O)O)c(C)c1C [Acitretine]
effect of earlier treatments on redness and psoriasis: reduced redness, but never the psoriasis itself | status upon cessation of earlier treatments: redness came back

C[C@]12CCC(=O)C=C1CC[C@@H]1[C@@H]2[C@@H](O)C[C@@]2(C)[C@H]1CC[C@]2(O)C(=O)CO [hydrocortisone]
effect of earlier treatments on redness and psoriasis: reduced redness, but never the psoriasis itself | status upon cessation of earlier treatments: redness came back
